Series [1] can be described thus: Physical stability of the isolated amorphous material. Type of series: physicochemical. The following applies: isolated by evaporating a methanolic solution. The source says:
Amorphous Cefdinir was isolated by evaporating a methanolic solution of cefdinir hydrate. […] Stable amorphous Cefdinir with Eudragit EPO was made and isolated by evaporating a methanolic solution. […] Amorphous cefdinir with PVP was made and isolated by evaporating a methanolic solution.

Series [2] in a line: Glass transition temperature (Tg) by thermally stimulated current spectroscopy. The class given is physicochemical. As for the experimental part: The glass transition temperature (Tg) determined by thermally stimulated current spectroscopy was 67° C. This value of 67° C. is considerably higher than ambient temperature, and as a rule of thumb high Tg values are desirable for room temperature stability.
The glass transition temperature (Tg) determined by thermally stimulated current spectroscopy was 102° C. […] The higher Tg observed for the cefdinir-EPO sample relative to the individual components further confirms specific interaction.
The glass transition temperature (Tg) determined by thermally stimulated current spectroscopy was 95° C.

For series [3] the following is noted: material taught in U.S. Pat. No. 4,559,334; cited from earlier work.

Regarding `C=CC1=C(C(=O)O)N2C(=O)C(NC(=O)C(=NO)c3csc(N)n3)[C@H]2SC1` (single isomer, unassigned) [Amorphous Cefdinir, 7-[2-(2-aminothiazol-4-yl)-2-hydroxyiminoacetamido]-3-vinyl-3-cephem-4-carboxylic acid (syn isomer)], the “physical stability of the amorphous material” value in series [1] is “physically stable”. Also, the “glass transition temperature (Tg)” value in series [2] is 67 °C.

With `C=CC1=C(C(=O)O)N2C(=O)[C@@H](NC(=O)/C(=N\O)c3csc(N)n3)[C@H]2SC1` [crystalline-like amorphous material], in series [3], the “stability of prior-art amorphous material” value is recorded as “unstable”.

The values above are taken from patent US20060029674A1, “Stable amorphous Cefdinir” (priority 2004, published 2006).
